Results from US9192601B2, “Methods for enhancing muscle performance and tone” (Salk Institute for Biological Studies, priority 2006, dated 2015).

Tests used:
quadriceps muscle = assay: Microarray analysis of quadriceps (Affymetrix mouse genome 430A 2.0); assay type: in vivo
primary muscle cells = assay: Gene expression in wild type and PPARδ null primary muscle cells; assay type: cell-based, mouse; details: wild type vs PPARδ null cells
Description: Primary muscle cells were isolated from wild type and PPARδ null mice as previously described (Rando and Blau, J. Cell. Biol. 125(6): 1275-87, 1994). […] RNA expression of UCP3, PDK4, LPL, and HSL was determined using real time quantitative PCR as described in Example 1.
To test this possibility, wild-type and PPARδ null primary muscle cells were used.

[1] = GW + Tr: GW1516 + exercise training, quadriceps
[2] = GW + Tr: GW1516 + exercise training, quadriceps, listed as GW
[3] = GW: GW1516 alone, sedentary, quadriceps, — = not regulated

Cc1cc(SCc2sc(-c3ccc(C(F)(F)F)cc3)nc2C)ccc1OCC(=O)O [GW1516, (2-methyl-4(((4-methyl-2-(4-trifluoromethylphenyl)-1,3-thiazol-5-yl)methyl)sulfanyl)phenoxy)acetic acid]
number of genes regulated in quadriceps (quadriceps muscle; GW1516 treatment alone): 96 genes | 1810073N04Rik expression (quadriceps muscle; [1]): 2.326 | 2310076L09Rik expression (quadriceps muscle; [1]): 1.868 | Abcb1a expression (quadriceps muscle; [1]): 10.322 | Acaa2 expression (quadriceps muscle; [1]): 1.926 | Acadl expression (quadriceps muscle; [1]): 2.549 | Acat2 expression (quadriceps muscle; [1]): 1.625 | Acly expression (quadriceps muscle; [1]): 2.606 | Acp5 expression (quadriceps muscle; [1]): 3.91 | Adfp (adipose differentiation related protein) expression (quadriceps muscle; [1]): 2.009 | Adipoq expression (quadriceps muscle; [1]): 3.082 | Adrb3 expression (quadriceps muscle; [1]): 3.83 | Aldh1a7 expression (quadriceps muscle; [1]): 3.862 | Angptl4 expression (quadriceps muscle; [1]): 5.495 | Aplp2 expression (quadriceps muscle; [1]): 1.937 | Arcn1 expression (quadriceps muscle; [1]): 1.617 | Asb15 expression (quadriceps muscle; [1]): 1.78 | Atf3 expression (quadriceps muscle; [1]): 1.802 | BC054059 expression (quadriceps muscle; [1]): 5.08 | Btg2 expression (quadriceps muscle; [1]): 1.601 | C530043G21Rik expression (quadriceps muscle; [1]): 1.5 | Car3 expression (quadriceps muscle; [1]): 2.339 | Cat expression (quadriceps muscle; [1]): 1.82 | Cd36 expression (quadriceps muscle; [1]): 1.584 | Cdo1 expression (quadriceps muscle; [1]): 3.266 | Cebpa expression (quadriceps muscle; [1]): 2.168 | Cfd expression (quadriceps muscle; [1]): 2.828 | Cidea expression (quadriceps muscle; [1]): 49.625 | Cidec expression (quadriceps muscle; [1]): 4.771 | Clcn5 expression (quadriceps muscle; [1]): 2.333 | Cldn5 expression (quadriceps muscle; [1]): 1.545 | Cpt1a expression (quadriceps muscle; [1]): 2.753 | Crybb1 expression (quadriceps muscle; [1]): 2.457 | Cyp2e1 expression (quadriceps muscle; [1]): 2.941 | D4Wsu53e expression (quadriceps muscle; [1]): 1.586 | Dbi expression (quadriceps muscle; [1]): 1.936 | Dgat2 expression (quadriceps muscle; [1]): 2.784 | Dnajb1 expression (quadriceps muscle; [1]): 3.59 | Dusp7 expression (quadriceps muscle; [1]): 1.661 | Dync1i2 expression (quadriceps muscle; [1]): 1.705 | Egr1 expression (quadriceps muscle; [1]): 2.577 | Fabp3 expression (quadriceps muscle; [1]): 1.833 | Fabp4 expression (quadriceps muscle; [1]): 2.189 | Fasn expression (quadriceps muscle; [1]): 6.323 | Fbp2 expression (quadriceps muscle; [1]): 2.808 | Fos expression (quadriceps muscle; [1]): 3.9 | Gpam expression (quadriceps muscle; [1]): 2.207 | Gpiap1 expression (quadriceps muscle; [1]): 1.83 | Hba-a1 expression (quadriceps muscle; [1]): 1.632 | Hbb-b2|Hbb-y expression (quadriceps muscle; [1]): 1.626 | Hip1r expression (quadriceps muscle; [1]): 1.75 | Hipk3 expression (quadriceps muscle; [1]): 1.694 | Hp expression (quadriceps muscle; [1]): 1.679 | Hsd17b12 expression (quadriceps muscle; [1]): 2.376 | Hsp90aa1 expression (quadriceps muscle; [1]): 1.513 | Hspa1b expression (quadriceps muscle; [1]): 8.845 | Hspa9a expression (quadriceps muscle; [1]): 1.61 | Ifi27 expression (quadriceps muscle; [1]): 1.714 | Igf2 expression (quadriceps muscle; [1]): 1.635 | Igfbp5 expression (quadriceps muscle; [1]): 1.772 | Il6st expression (quadriceps muscle; [1]): 1.972 | Junb expression (quadriceps muscle; [1]): 1.792 | Klf3 expression (quadriceps muscle; [1]): 1.901 | Ldhb expression (quadriceps muscle; [1]): 2.541 | Lig3 expression (quadriceps muscle; [1]): 2.693 | Lipe expression (quadriceps muscle; [1]): 3.032 | Lmx1a expression (quadriceps muscle; [1]): 4.106 | Lpl expression (quadriceps muscle; [1]): 1.659 | Mb expression (quadriceps muscle; [1]): 1.578 | Mgl1 / Mgll (monoglyceride lipase) expression (quadriceps muscle; [1]): 1.907 | Mgst1 expression (quadriceps muscle; [1]): 1.916 | Mlycd expression (quadriceps muscle; [1]): 1.781 | Mpv17l expression (quadriceps muscle; [1]): 1.988 | Mybph expression (quadriceps muscle; [1]): 1.578 | Myh2 expression (quadriceps muscle; [1]): 2.194 | Neurl expression (quadriceps muscle; [1]): 1.941 | Nle1 expression (quadriceps muscle; [1]): 1.831 | Nr1d2 expression (quadriceps muscle; [1]): 1.794 | Nr4a2 expression (quadriceps muscle; [1]): 1.776 | Pck1 expression (quadriceps muscle; [1]): 3.518 | Pdk4 expression (quadriceps muscle; [1]): 2.27 | Ppp2r1b expression (quadriceps muscle; [1]): 2.509 | Ptplb expression (quadriceps muscle; [1]): 2.38 | Rab5b expression (quadriceps muscle; [1]): 1.603 | Rbbp4 expression (quadriceps muscle; [1]): 2.865 | Rbp4 expression (quadriceps muscle; [1]): 2.065 | Retn expression (quadriceps muscle; [1]): 4.114 | Rpol-4 expression (quadriceps muscle; [1]): 2.498 | Rragd expression (quadriceps muscle; [1]): 2.101 | Rtbdn expression (quadriceps muscle; [1]): 2.32 | Scd1 expression (quadriceps muscle; [1]): 6.494 | Scd2 expression (quadriceps muscle; [1]): 1.849 | Serpina1a expression (quadriceps muscle; [1]): 0.396 | Serpinf1 expression (quadriceps muscle; [1]): 7.765 | Slc1a5 expression (quadriceps muscle; [1]): 1.939 | Slc25a20 expression (quadriceps muscle; [1]): 1.865 | Slc27a1 expression (quadriceps muscle; [1]): 3.58 | Sln expression (quadriceps muscle; [1]): 0.363 | Sod3 expression (quadriceps muscle; [1]): 1.606 | Surf4 expression (quadriceps muscle; [1]): 2.091 | Svs5 expression (quadriceps muscle; [1]): 0.095 | Tgfbr2 expression (quadriceps muscle; [1]): 2.13 | Thrsp expression (quadriceps muscle; [1]): 2.685 | Tkt expression (quadriceps muscle; [1]): 2.256 | Tpcn1 expression (quadriceps muscle; [1]): 2.842 | Trf expression (quadriceps muscle; [1]): 1.907 | Trim35 expression (quadriceps muscle; [1]): 1.856 | Ucp3 expression (quadriceps muscle; [1]): 2.943 | Wnt7b expression (quadriceps muscle; [1]): 4.449 | Ywhag expression (quadriceps muscle; [1]): 1.87 | Zfp261 expression (quadriceps muscle; [1]): 1.847 | erythroid differentiation regulator 1 expression (quadriceps muscle; [1]): 0.619 | Acly expression (quadriceps muscle; [2]): 2.458 | Cat expression (quadriceps muscle; [2]): 1.728 | Hsp90aa1 expression (quadriceps muscle; [2]): 1.455 | Slc25a20 expression (quadriceps muscle; [2]): 1.704 | Ankrd1 expression (quadriceps muscle; [3]): 4.235 | Cryab expression (quadriceps muscle; [3]): 1.561 | Crygf expression (quadriceps muscle; [3]): 1.801 | Dnaja4 expression (quadriceps muscle; [3]): 1.756 | Hspb1 expression (quadriceps muscle; [3]): 1.815 | Hspb7 expression (quadriceps muscle; [3]): 3.414 | Mt1 expression (quadriceps muscle; [3]): 2.364 | Mt2 expression (quadriceps muscle; [3]): 2.151 | Smad3 expression (quadriceps muscle; [3]): 1.841 | Tnfrsf12a expression (quadriceps muscle; [3]): 1.759 | number of genes regulated in quadriceps (quadriceps muscle; combination of GW1516 and exercise): 130 genes | induction of oxidative genes (UCP3, mCPT I, PDK4) (primary muscle cells): mediated via activation of PPARδ
